target: Receptor tyrosine-protein kinase erbB-2 (Homo sapiens, UniProt P04626); test: Inhibition of HER-2
Sequence (P04626 whole entry): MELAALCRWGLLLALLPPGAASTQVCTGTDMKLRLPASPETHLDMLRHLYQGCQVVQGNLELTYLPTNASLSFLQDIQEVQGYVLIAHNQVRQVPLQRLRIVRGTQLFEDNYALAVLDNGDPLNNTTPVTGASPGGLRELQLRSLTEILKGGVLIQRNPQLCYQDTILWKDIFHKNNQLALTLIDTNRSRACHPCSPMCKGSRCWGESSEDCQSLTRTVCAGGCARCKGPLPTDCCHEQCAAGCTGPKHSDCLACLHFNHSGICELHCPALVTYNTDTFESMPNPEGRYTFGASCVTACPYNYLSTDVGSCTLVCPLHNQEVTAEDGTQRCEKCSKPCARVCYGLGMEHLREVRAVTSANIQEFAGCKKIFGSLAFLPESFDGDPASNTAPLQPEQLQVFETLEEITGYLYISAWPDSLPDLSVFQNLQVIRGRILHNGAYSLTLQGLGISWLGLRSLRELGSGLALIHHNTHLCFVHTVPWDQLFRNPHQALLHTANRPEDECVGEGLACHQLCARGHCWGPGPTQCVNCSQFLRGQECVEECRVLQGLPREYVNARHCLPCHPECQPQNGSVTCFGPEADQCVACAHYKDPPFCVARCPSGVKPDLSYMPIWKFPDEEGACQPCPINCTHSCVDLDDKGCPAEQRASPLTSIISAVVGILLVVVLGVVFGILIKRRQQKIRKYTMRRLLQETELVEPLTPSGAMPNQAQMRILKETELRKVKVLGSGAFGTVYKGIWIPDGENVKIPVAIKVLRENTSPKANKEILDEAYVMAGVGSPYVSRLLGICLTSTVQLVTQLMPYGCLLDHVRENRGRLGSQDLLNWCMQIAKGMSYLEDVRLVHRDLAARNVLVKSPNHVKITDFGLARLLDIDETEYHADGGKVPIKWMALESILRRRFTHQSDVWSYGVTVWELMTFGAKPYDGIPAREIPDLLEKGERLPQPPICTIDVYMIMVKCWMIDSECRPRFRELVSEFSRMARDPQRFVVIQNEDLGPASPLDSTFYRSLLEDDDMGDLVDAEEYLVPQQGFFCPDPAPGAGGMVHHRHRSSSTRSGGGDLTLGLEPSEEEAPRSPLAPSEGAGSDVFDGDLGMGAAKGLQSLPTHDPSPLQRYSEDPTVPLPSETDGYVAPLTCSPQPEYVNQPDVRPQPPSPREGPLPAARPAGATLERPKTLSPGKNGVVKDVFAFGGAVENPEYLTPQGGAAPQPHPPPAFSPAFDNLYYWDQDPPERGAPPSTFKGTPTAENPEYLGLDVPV

IC50 [nM]	Compound
28	O=C(NO)[C@H]1CC(OC(=O)N2CCCC2)CN[C@@H]1C(=O)N1CC[C@H](c2ccccc2)C1 (stereo partly drawn)
4.3	O=C(NO)[C@H]1CC(CC(=O)N2CCCC2)CN[C@@H]1C(=O)N1CC=C(c2ccccc2)CC1 (stereo partly drawn) [(2S,3S)-N-hydroxy-5-(2-oxo-2-(pyrrolidin-1-yl)ethyl)-2-(4-phenyl-1,2,3,6-tetrahydropyridine-1-carbonyl)piperidine-3-carboxamide]
5.6	O=C(NO)[C@H]1CC(CC(=O)N2CCCC2)CN[C@@H]1C(=O)N1CC[C@H](c2ccccc2)C1 (stereo partly drawn) [(2S,3S)-N-hydroxy-5-(2-oxo-2-(pyrrolidin-1-yl)ethyl)-2-((R)-3-phenylpyrrolidine-1-carbonyl)piperidine-3-carboxamide]
10	CN(C(=O)c1ccccc1)C1CN[C@H](C(=O)N2CC=C(c3ccccc3)CC2)[C@@H](C(=O)NO)C1 (stereo partly drawn) [(2S,3S)-N-hydroxy-5-(N-methylbenzamido)-2-(4-phenyl-1,2,3,6-tetrahydropyridine-1-carbonyl)piperidine-3-carboxamide]
29	CN(C(=O)c1ccccc1)C1CN[C@H](C(=O)N2CC[C@H](c3ccccc3)C2)[C@@H](C(=O)NO)C1 (stereo partly drawn) [(2S,3S)-N-hydroxy-5-(N-methylbenzamido)-2-((R)-3-phenylpyrrolidine-1-carbonyl)piperidine-3-carboxamide]
15.5	CC(C)C(=O)N(C)C1CN[C@H](C(=O)N2CC=C(c3ccccc3)CC2)[C@@H](C(=O)NO)C1 (stereo partly drawn) [(2S,3S)-N-hydroxy-5-(N-methylisobutyramido)-2-(4-phenyl-1,2,3,6-tetrahydropyridine-1-carbonyl)piperidine-3-carboxamide]
52	CC(C)C(=O)N(C)C1CN[C@H](C(=O)N2CC[C@H](c3ccccc3)C2)[C@@H](C(=O)NO)C1 (stereo partly drawn) [(2S,3S)-N-hydroxy-5-(N-methylisobutyramido)-2-((R)-3-phenylpyrrolidine-1-carbonyl)piperidine-3-carboxamide]
8.1	COC(=O)N1C[C@@H](OC(=O)N2CCCC2)C[C@H](C(=O)NO)[C@H]1C(=O)N1CCN(c2ccccc2)CC1 [(2S,3S,5S)-methyl 3-(hydroxycarbamoyl)-2-(4-phenylpiperazine-1-carbonyl)-5-(pyrrolidine-1-carbonyloxy)piperidine-1-carboxylate]
30	O=C(NO)[C@H]1C[C@@H](OC(=O)N2CCCC2)CN[C@@H]1C(=O)N1CC=C(c2ccccc2)CC1 [(3R,5S,6S)-5-(hydroxycarbamoyl)-6-(4-phenyl-1,2,3,6-tetrahydropyridine-1-carbonyl)piperidin-3-yl pyrrolidine-1-carboxylate]
3.8	CN1C[C@@H](OC(=O)N2CC=CC2)C[C@H](C(=O)NO)[C@H]1C(=O)N1CCN(c2ccccc2)CC1 [(3S,5S,6S)-5-(hydroxycarbamoyl)-1-methyl-6-(4-phenylpiperazine-1-carbonyl)piperidin-3-yl 2,5-dihydro-1H-pyrrole-1-carboxylate]
50.5	CN1C[C@@H](OC(=O)N2CCC(F)(F)C2)C[C@H](C(=O)NO)[C@H]1C(=O)N1CCN(c2ccccc2)CC1 [(3S,5S,6S)-5-(hydroxycarbamoyl)-1-methyl-6-(4-phenylpiperazine-1-carbonyl)piperidin-3-yl 3,3-difluoropyrrolidine-1-carboxylate]
4.4	CN1C[C@@H](OC(=O)N2CCCCCC2)C[C@H](C(=O)NO)[C@H]1C(=O)N1CCN(c2ccccc2)CC1 [(3S,5S,6S)-5-(hydroxycarbamoyl)-1-methyl-6-(4-phenylpiperazine-1-carbonyl)piperidin-3-yl azepane-1-carboxylate]
44.5	CN1C[C@@H](OC(=O)N2CCC2)C[C@H](C(=O)NO)[C@H]1C(=O)N1CCN(c2ccccc2)CC1 [(3S,5S,6S)-5-(hydroxycarbamoyl)-1-methyl-6-(4-phenylpiperazine-1-carbonyl)piperidin-3-yl azetidine-1-carboxylate]
27.5	CN1C[C@@H](OC(=O)N2CCCCCCC2)C[C@H](C(=O)NO)[C@H]1C(=O)N1CCN(c2ccccc2)CC1 [(3S,5S,6S)-5-(hydroxycarbamoyl)-1-methyl-6-(4-phenylpiperazine-1-carbonyl)piperidin-3-yl azocane-1-carboxylate]
31	CN(C)C(=O)O[C@H]1C[C@H](C(=O)NO)[C@@H](C(=O)N2CCN(c3ccccc3)CC2)N(C)C1 [(3S,5S,6S)-5-(hydroxycarbamoyl)-1-methyl-6-(4-phenylpiperazine-1-carbonyl)piperidin-3-yl dimethylcarbamate]
7.3	CN1C[C@@H](OC(=O)N2CCCCC2)C[C@H](C(=O)NO)[C@H]1C(=O)N1CCN(c2ccccc2)CC1 [(3S,5S,6S)-5-(hydroxycarbamoyl)-1-methyl-6-(4-phenylpiperazine-1-carbonyl)piperidin-3-yl piperidine-1-carboxylate]
11.5	CN1C[C@@H](OC(=O)N2CCCC2)C[C@H](C(=O)NO)[C@H]1C(=O)N1CCN(c2ccccc2)CC1 [(3S,5S,6S)-5-(hydroxycarbamoyl)-1-methyl-6-(4-phenylpiperazine-1-carbonyl)piperidin-3-yl pyrrolidine-1-carboxylate]
11	O=C(NO)[C@H]1C[C@H](OC(=O)N2CCCC2)CN[C@@H]1C(=O)N1CC=C(c2ccccc2)C1 [(5S,6S)-5-(hydroxycarbamoyl)-6-(3-phenyl-2,5-dihydro-1H-pyrrole-1-carbonyl)piperidin-3-yl pyrrolidine-1-carboxylate]
5.6	O=C(NO)[C@H]1CC(OC(=O)N2CCCC2)CN[C@@H]1C(=O)N1CC=C(c2ccccc2)CC1 (stereo partly drawn) [(5S,6S)-5-(hydroxycarbamoyl)-6-(4-phenyl-1,2,3,6-tetrahydropyridine-1-carbonyl)piperidin-3-yl pyrrolidine-1-carboxylate]
3.8	O=C(NO)[C@H]1C[C@H](OC(=O)N2CCCC2)CN[C@@H]1C(=O)N1CCN(c2ccccc2)CC1 [(5S,6S)-5-(hydroxycarbamoyl)-6-(4-phenylpiperazine-1-carbonyl)piperidin-3-yl pyrrolidine-1-carboxylate]
42	O=C(NO)[C@H]1C[C@H](OC(=O)N2CCCC2)CN[C@@H]1C(=O)N1CCC(c2ccccc2)CC1 [(5S,6S)-5-(hydroxycarbamoyl)-6-(4-phenylpiperidine-1-carbonyl)piperidin-3-yl pyrrolidine-1-carboxylate]
70	O=C(NO)[C@H]1CC(OC(=O)N2CCCC2)CN[C@@H]1C(=O)N1Cc2ccccc2C1 (stereo partly drawn) [(5S,6S)-5-(hydroxycarbamoyl)-6-(isoindoline-2-carbonyl)piperidin-3-yl pyrrolidine-1-carboxylate]
8.5	CC(C)OC(=O)N(C)C1CN[C@H](C(=O)N2CC=C(c3ccccc3)CC2)[C@@H](C(=O)NO)C1 (stereo partly drawn) [isopropyl-(5S,6S)-5-(hydroxycarbamoyl)-6-(4-phenyl-1,2,3,6-tetrahydropyridine-1-carbonyl)piperidin-3-yl(methyl)carbamate]

Source: BindingDB's records for doi:10.1016/j.bmcl.2009.07.052 (Incyte, 2009)
